Source: article PMC5218480 (PLoS ONE, 2017)

Test system: MV-4-11 cells
Assay: Gene expression microarray analysis (Affymetrix PrimeView) and GSEA
Type: cell-based, human
Parameters: RFU PODN (11730768_x_at) / Fold change /veh PODN (11730768_x_at) / RFU LINC00158 (11744669_a_at) / Fold change /veh LINC00158 (11744669_a_at) / RFU DUSP10 (11751237_a_at) / Fold change /veh DUSP10 (11751237_a_at) / RFU ID3 (11757404_x_at) / Fold change /veh ID3 (11757404_x_at) / RFU PLEKHG5 (11737974_s_at) / Fold change /veh PLEKHG5 (11737974_s_at) / RFU LRRC4B (11730491_at) / Fold change /veh LRRC4B (11730491_at) / RFU GIMAP4 (11747438_a_at) / Fold change /veh GIMAP4 (11747438_a_at) / RFU KRT8 (11758183_x_at) / Fold change /veh KRT8 (11758183_x_at) / RFU CNN1 (11734310_a_at) / Fold change /veh CNN1 (11734310_a_at) / RFU VPS37D (11726825_at) / Fold change /veh VPS37D (11726825_at) / RFU C10orf10 (11716522_x_at) / Fold change /veh C10orf10 (11716522_x_at) / RFU KIR2DL2 /// KIR2DL4 /// KIR2DL5A /// KIR2DL5B /// KIR2DS1 /// KIR2DS2 /// KIR2DS3 /// KIR2DS4 /// KIR3DL3 /// KIR3DL3 /// KIR3DS1 (11738374_at) / Fold change /veh KIR2DL2 /// KIR2DL4 /// KIR2DL5A /// KIR2DL5B /// KIR2DS1 /// KIR2DS2 /// KIR2DS3 /// KIR2DS4 /// KIR3DL3 /// KIR3DL3 /// KIR3DS1 (11738374_at) / RFU C1QL1 (11718748_at) / Fold change /veh C1QL1 (11718748_at) / RFU TMPRSS4 (11747572_a_at) / Fold change /veh TMPRSS4 (11747572_a_at) / RFU HAMP (11756126_x_at) / Fold change /veh HAMP (11756126_x_at) / RFU RNFT2 (11725882_a_at) / Fold change /veh RNFT2 (11725882_a_at) / RFU NR4A2 (11747474_a_at) / Fold change /veh NR4A2 (11747474_a_at) / RFU ABCC12 (11746883_a_at) / Fold change /veh ABCC12 (11746883_a_at) / RFU TMEM136 (11760407_x_at) / Fold change /veh TMEM136 (11760407_x_at) / RFU CLDN22 /// WWC2 (11732394_at) / Fold change /veh CLDN22 /// WWC2 (11732394_at) / RFU HLA-DPB1 (11760878_x_at) / Fold change /veh HLA-DPB1 (11760878_x_at) / RFU SPINT1 (11716480_a_at) / Fold change /veh SPINT1 (11716480_a_at) / RFU GAP43 (11754022_s_at) / Fold change /veh GAP43 (11754022_s_at) / RFU A4GNT (11735810_at) / Fold change /veh A4GNT (11735810_at) / RFU PRB3 (11715151_x_at) / Fold change /veh PRB3 (11715151_x_at) / RFU TUBB4B (11761932_at) / Fold change /veh TUBB4B (11761932_at) / RFU CAPN14 (11732068_a_at) / Fold change /veh CAPN14 (11732068_a_at) / RFU TMCC2 (11721928_a_at) / Fold change /veh TMCC2 (11721928_a_at) / RFU IRGQ (11745062_a_at) / Fold change /veh IRGQ (11745062_a_at) / RFU FAM174B (11720279_a_at) / Fold change /veh FAM174B (11720279_a_at) / RFU TMPRSS4 (11748680_a_at) / Fold change /veh TMPRSS4 (11748680_a_at) / RFU FAM212B (11763350_a_at) / Fold change /veh FAM212B (11763350_a_at) / RFU PLEKHG5 (11743358_a_at) / Fold change /veh PLEKHG5 (11743358_a_at) / RFU ZSCAN30 (11745921_a_at) / Fold change /veh ZSCAN30 (11745921_a_at) / RFU CMKLR1 (11741424_a_at) / Fold change /veh CMKLR1 (11741424_a_at) / RFU LOC101060620 /// MAPK8IP1 (11723275_at) / Fold change /veh LOC101060620 /// MAPK8IP1 (11723275_at) / RFU SPTSSB (11747773_x_at) / Fold change /veh SPTSSB (11747773_x_at) / RFU PRSS12 (11739890_at) / Fold change /veh PRSS12 (11739890_at) / RFU BIN1 (11741810_x_at) / Fold change /veh BIN1 (11741810_x_at) / RFU WNT11 (11732464_a_at) / Fold change /veh WNT11 (11732464_a_at) / RFU C10orf10 (11716521_a_at) / Fold change /veh C10orf10 (11716521_a_at) / RFU C5orf56 (11738089_at) / Fold change /veh C5orf56 (11738089_at) / RFU CYB561 (11721691_x_at) / Fold change /veh CYB561 (11721691_x_at) / RFU ANKRD19P (11752326_a_at) / Fold change /veh ANKRD19P (11752326_a_at) / RFU OR2T12 /// OR2T33 /// OR2T8 (11738714_s_at) / Fold change /veh OR2T12 /// OR2T33 /// OR2T8 (11738714_s_at) / RFU VCAN (11748164_a_at) / Fold change /veh VCAN (11748164_a_at) / RFU JSRP1 (11732532_at) / Fold change /veh JSRP1 (11732532_at) / RFU KRTAP10-11 (11738290_x_at) / Fold change /veh KRTAP10-11 (11738290_x_at) / RFU MYO3A (11730013_a_at) / Fold change /veh MYO3A (11730013_a_at) / RFU EBF3 (11725865_a_at) / Fold change /veh EBF3 (11725865_a_at) / RFU CAMK2N1 (11719241_x_at) / Fold change /veh CAMK2N1 (11719241_x_at) / RFU C5orf56 (11738088_a_at) / Fold change /veh C5orf56 (11738088_a_at) / RFU OLFML3 (11715873_a_at) / Fold change /veh OLFML3 (11715873_a_at) / RFU LOC100653217 /// NTM (11731650_a_at) / Fold change /veh LOC100653217 /// NTM (11731650_a_at) / RFU MAPK11 (11762145_a_at) / Fold change /veh MAPK11 (11762145_a_at) / RFU FIZ1 (11724087_x_at) / Fold change /veh FIZ1 (11724087_x_at) / RFU OASL (11726364_x_at) / Fold change /veh OASL (11726364_x_at) / RFU SOX15 (11748057_x_at) / Fold change /veh SOX15 (11748057_x_at) / RFU CD79A (11719716_a_at) / Fold change /veh CD79A (11719716_a_at) / RFU HIST1H1D (11736915_at) / Fold change /veh HIST1H1D (11736915_at) / RFU CASKIN2 (11723855_a_at) / Fold change /veh CASKIN2 (11723855_a_at) / RFU LOC730098 (11760151_x_at) / Fold change /veh LOC730098 (11760151_x_at) / RFU OR4N2 (11742367_at) / Fold change /veh OR4N2 (11742367_at) / RFU PRRT2 (11749266_a_at) / Fold change /veh PRRT2 (11749266_a_at) / RFU SNX32 (11753110_a_at) / Fold change /veh SNX32 (11753110_a_at) / RFU CDHR5 (11726645_a_at) / Fold change /veh CDHR5 (11726645_a_at) / RFU RCAN1 (11760418_a_at) / Fold change /veh RCAN1 (11760418_a_at) / RFU FAM167A (11723789_a_at) / Fold change /veh FAM167A (11723789_a_at) / RFU FAM26E (11764081_at) / Fold change /veh FAM26E (11764081_at) / RFU ISYNA1 (11749810_s_at) / Fold change /veh ISYNA1 (11749810_s_at) / RFU ACY1 (11761880_at) / Fold change /veh ACY1 (11761880_at) / RFU 11764098_at / Fold change /veh 11764098_at / RFU SAMD14 (11745864_x_at) / Fold change /veh SAMD14 (11745864_x_at) / RFU NPB (11741838_a_at) / Fold change /veh NPB (11741838_a_at) / RFU TMPRSS6 (11731388_a_at) / Fold change /veh TMPRSS6 (11731388_a_at) / RFU KRTAP10-2 (11738614_at) / Fold change /veh KRTAP10-2 (11738614_at) / RFU ARHGAP8 /// PRR5-ARHGAP8 (11727945_x_at) / Fold change /veh ARHGAP8 /// PRR5-ARHGAP8 (11727945_x_at) / RFU KRTAP5-7 /// NADSYN1 (11734609_at) / Fold change /veh KRTAP5-7 /// NADSYN1 (11734609_at) / RFU RASL12 (11751679_a_at) / Fold change /veh RASL12 (11751679_a_at) / RFU CDKN2B (11736163_a_at) / Fold change /veh CDKN2B (11736163_a_at) / RFU PRF1 (11729649_at) / Fold change /veh PRF1 (11729649_at) / RFU, ZNF638 /// ZNF638-IT1 / Fold change vs veh, ZNF638 /// ZNF638-IT1 / RFU, PANK3 / Fold change vs veh, PANK3 / RFU, SH3YL1 / Fold change vs veh, SH3YL1 / RFU, ZEB2 / Fold change vs veh, ZEB2 / RFU, NRIP1 / Fold change vs veh, NRIP1 / RFU, PTTG1IP / Fold change vs veh, PTTG1IP / RFU, CAPN2 / Fold change vs veh, CAPN2 / RFU, MED14 / Fold change vs veh, MED14 / RFU, SNORA58 / Fold change vs veh, SNORA58 / RFU, C1orf63 / Fold change vs veh, C1orf63 / RFU, LRRFIP1 / Fold change vs veh, LRRFIP1 / RFU, NDUFAF7 / Fold change vs veh, NDUFAF7 / RFU, SLC12A2 / Fold change vs veh, SLC12A2 / RFU, IBTK / Fold change vs veh, IBTK / RFU, ESF1 / Fold change vs veh, ESF1 / Fold change vs veh, TMEM50B / RFU, TAOK1 / Fold change vs veh, TAOK1 / RFU, ACBD3 / Fold change vs veh, ACBD3 / RFU, TMA16 / Fold change vs veh, TMA16 / RFU, RWDD3 / Fold change vs veh, RWDD3 / RFU, BCAT1 / Fold change vs veh, BCAT1 / RFU, EDEM3 / Fold change vs veh, EDEM3 / RFU, TMEM33 / Fold change vs veh, TMEM33 / RFU, WDR75 / Fold change vs veh, WDR75 / RFU, AHCTF1 / Fold change vs veh, AHCTF1 / RFU, TFRC / Fold change vs veh, TFRC / RFU, ZDHHC17 / Fold change vs veh, ZDHHC17 / RFU, NOM1 / Fold change vs veh, NOM1 / RFU, ARL8B / Fold change vs veh, ARL8B / RFU, ZBTB11 / Fold change vs veh, ZBTB11 / RFU, TAMM41 / Fold change vs veh, TAMM41 / RFU, KIAA1704 /// LOC100996395 / Fold change vs veh, KIAA1704 /// LOC100996395 / RFU, ING1 / Fold change vs veh, ING1 / RFU, TRMT61B / Fold change vs veh, TRMT61B / RFU, FUBP3 / Fold change vs veh, FUBP3 / RFU, TP53 / Fold change vs veh, TP53 / RFU, TNKS2 / Fold change vs veh, TNKS2 / RFU, ZFP14 / Fold change vs veh, ZFP14 / RFU, ACTR2 / Fold change vs veh, ACTR2 / RFU, PPP3R1 / Fold change vs veh, PPP3R1 / RFU, PIK3R1 / Fold change vs veh, PIK3R1 / RFU, HNRNPA1 / Fold change vs veh, HNRNPA1 / RFU, RNF170 / Fold change vs veh, RNF170 / RFU, ZNF28 / Fold change vs veh, ZNF28 / RFU, RNGTT / Fold change vs veh, RNGTT / RFU, OGT / Fold change vs veh, OGT / RFU, BRD1 / Fold change vs veh, BRD1 / RFU, MARS / Fold change vs veh, MARS / RFU, ZNF655 / Fold change vs veh, ZNF655 / RFU, FAHD1 / Fold change vs veh, FAHD1 / RFU, BDP1 / Fold change vs veh, BDP1 / RFU, LRRCC1 / Fold change vs veh, LRRCC1 / RFU, ARID1A / Fold change vs veh, ARID1A / RFU, ZNF146 / Fold change vs veh, ZNF146 / RFU, ZNF330 / Fold change vs veh, ZNF330 / RFU, GPN3 / Fold change vs veh, GPN3 / RFU, C9orf123 / Fold change vs veh, C9orf123 / RFU, N4BP2L2 / Fold change vs veh, N4BP2L2 / RFU, ARFIP1 / Fold change vs veh, ARFIP1 / RFU, FAM179B / Fold change vs veh, FAM179B / RFU, BCL10 / Fold change vs veh, BCL10 / RFU, UHRF1BP1L / Fold change vs veh, UHRF1BP1L / RFU, BET1 / Fold change vs veh, BET1 / RFU, CNOT2 / Fold change vs veh, CNOT2 / RFU, ZNF268 / Fold change vs veh, ZNF268 / Fold change vs veh, ZNF507 / RFU, DGCR2 / Fold change vs veh, DGCR2 / RFU, WDSUB1 / Fold change vs veh, WDSUB1 / Fold change vs veh, HSP90B1 /// MIR3652 / RFU, ADSS / Fold change vs veh, ADSS / RFU, GK / Fold change vs veh, GK / RFU, ZNF148 / Fold change vs veh, ZNF148 / RFU, TAF9 / Fold change vs veh, TAF9 / RFU, SLC1A5 / Fold change vs veh, SLC1A5 / RFU, SLMO2 / Fold change vs veh, SLMO2 / RFU, ABCC4 / Fold change vs veh, ABCC4 / RFU, LOC101060439 /// RAP1B / Fold change vs veh, LOC101060439 /// RAP1B / RFU, RFX7 / Fold change vs veh, RFX7 / RFU, GTPBP10 / Fold change vs veh, GTPBP10 / RFU, CNEP1R1 / Fold change vs veh, CNEP1R1 / RFU, BIVM-ERCC5 /// ERCC5 / Fold change vs veh, BIVM-ERCC5 /// ERCC5 / RFU, ILF3 / Fold change vs veh, ILF3 / RFU 11762660_at / Fold change /veh 11762660_at / RFU VCAN (11757783_s_at) / Fold change /veh VCAN (11757783_s_at) / RFU DDX43 (11728927_at) / Fold change /veh DDX43 (11728927_at) / RFU KRT8 (11758188_x_at) / Fold change /veh KRT8 (11758188_x_at) / RFU NKD1 (11759106_at) / Fold change /veh NKD1 (11759106_at) / RFU SRD5A1 (11742802_a_at) / Fold change /veh SRD5A1 (11742802_a_at) / RFU TPSAB1 /// TPSB2 (11721975_s_at) / Fold change /veh TPSAB1 /// TPSB2 (11721975_s_at) / RFU GSTM3 (11746129_a_at) / Fold change /veh GSTM3 (11746129_a_at) / RFU IL23R (11737362_x_at) / Fold change /veh IL23R (11737362_x_at) / RFU TMEM51 (11727254_a_at) / Fold change /veh TMEM51 (11727254_a_at) / RFU PIWIL2 (11732686_x_at) / Fold change /veh PIWIL2 (11732686_x_at) / RFU ORM1 (11744905_x_at) / Fold change /veh ORM1 (11744905_x_at) / RFU CCDC152 (11743942_at) / Fold change /veh CCDC152 (11743942_at) / RFU ECM1 (11717891_a_at) / Fold change /veh ECM1 (11717891_a_at) / RFU IL23R (11748794_a_at) / Fold change /veh IL23R (11748794_a_at) / RFU TNFAIP8L3 (11732012_x_at) / Fold change /veh TNFAIP8L3 (11732012_x_at) / RFU MBOAT4 (11741988_at) / Fold change /veh MBOAT4 (11741988_at) / RFU 11764193_at / Fold change /veh 11764193_at / RFU TMEM53 (11763286_at) / Fold change /veh TMEM53 (11763286_at) / RFU MAGEB2 (11727129_at) / Fold change /veh MAGEB2 (11727129_at) / RFU TMEM200A (11744735_a_at) / Fold change /veh TMEM200A (11744735_a_at) / RFU CCDC152 (11751479_a_at) / Fold change /veh CCDC152 (11751479_a_at) / RFU FAM211A (11726209_a_at) / Fold change /veh FAM211A (11726209_a_at) / RFU RGS16 (11746705_a_at) / Fold change /veh RGS16 (11746705_a_at) / RFU VCAN (11755009_s_at) / Fold change /veh VCAN (11755009_s_at) / RFU RHOB (11743442_s_at) / Fold change /veh RHOB (11743442_s_at) / RFU RGS16 (11720943_a_at) / Fold change /veh RGS16 (11720943_a_at) / RFU RGS16 (11720944_at) / Fold change /veh RGS16 (11720944_at) / RFU, VPS4B / Fold change vs veh, VPS4B / RFU, CREB1 / Fold change vs veh, CREB1 / RFU, DNAJC13 / Fold change vs veh, DNAJC13 / RFU, GNAQ / Fold change vs veh, GNAQ / RFU, CDK5R1 / Fold change vs veh, CDK5R1 / RFU, ZRANB3 / Fold change vs veh, ZRANB3 / RFU, CUL4A / Fold change vs veh, CUL4A / RFU, CCNY / Fold change vs veh, CCNY / RFU, UFL1 / Fold change vs veh, UFL1 / RFU, COG3 / Fold change vs veh, COG3 / RFU, DIAPH2 / Fold change vs veh, DIAPH2 / RFU, SKA2 / Fold change vs veh, SKA2 / RFU, AFF3 / Fold change vs veh, AFF3 / RFU, LMF1 / Fold change vs veh, LMF1 / RFU, IPO11 / Fold change vs veh, IPO11 / RFU, DFFB / Fold change vs veh, DFFB / RFU, FOXP1 / Fold change vs veh, FOXP1 / RFU, CARD8 / Fold change vs veh, CARD8 / RFU, STRN3 / Fold change vs veh, STRN3 / RFU, ADK / Fold change vs veh, ADK / RFU, RASSF2 / Fold change vs veh, RASSF2 / RFU, WIPF1 / Fold change vs veh, WIPF1 / RFU, LARP1B / Fold change vs veh, LARP1B / RFU, RASA1 / Fold change vs veh, RASA1 / RFU, RB1 / Fold change vs veh, RB1 / RFU, PPFIA1 / Fold change vs veh, PPFIA1 / RFU, MAT2A / Fold change vs veh, MAT2A / RFU, CCT5 / Fold change vs veh, CCT5 / RFU, WDR92 / Fold change vs veh, WDR92 / RFU, CUX1 / Fold change vs veh, CUX1 / RFU, TTC7A / Fold change vs veh, TTC7A / RFU, TMEM135 / Fold change vs veh, TMEM135 / RFU, DEPTOR / Fold change vs veh, DEPTOR / RFU, CPM / Fold change vs veh, CPM / RFU, DNAJB6 / Fold change vs veh, DNAJB6 / RFU, CACNA2D3 / Fold change vs veh, CACNA2D3 / RFU, DTX4 / Fold change vs veh, DTX4 / RFU, TFCP2 / Fold change vs veh, TFCP2 / RFU, GMCL1 /// GMCL1P1 / Fold change vs veh, GMCL1 /// GMCL1P1 / RFU, AEBP2 / Fold change vs veh, AEBP2 / RFU, SNHG1 /// SNORD22 /// SNORD25 /// SNORD26 /// SNORD27 /// SNORD28 /// SNORD29 /// SNORD31 / Fold change vs veh, SNHG1 /// SNORD22 /// SNORD25 /// SNORD26 /// SNORD27 /// SNORD28 /// SNORD29 /// SNORD31 / Fold change (Aza/veh), C12orf56 (ProbeSet 11735607_a_at) / Fold change (ACY-1035/veh), C12orf56 (ProbeSet 11735607_a_at) / Fold change (Aza/veh), FGFR1OP (ProbeSet 11751329_s_at) / Fold change (ACY-1035/veh), FGFR1OP (ProbeSet 11751329_s_at) / Fold change (Aza/veh), VPS36 (ProbeSet 11739960_a_at) / Fold change (ACY-1035/veh), VPS36 (ProbeSet 11739960_a_at) / RFU SYPL1 (11715823_x_at) / Fold change /veh SYPL1 (11715823_x_at) / RFU IGFBP7 (11715501_s_at) / Fold change /veh IGFBP7 (11715501_s_at) / RFU REEP3 (11722064_at) / Fold change /veh REEP3 (11722064_at) / RFU IGLL1 (11728026_x_at) / Fold change /veh IGLL1 (11728026_x_at): dose or concentration left out as unconfirmed
Details: ProbeSet 11731610_x_at; LIST B

For Nc1ncn([C@@H]2O[C@H](CO)[C@@H](O)[C@H]2O)c(=O)n1 [azacitidine], the “RFU, KIAA1704 /// LOC100996395” value was 92.56 RFU.
